The values that follow come from patent US20040198716A1, “Cysteine protease inhimbitors” (priority 2001, published 2004).

Test [1] addresses T1, human recombinant caspase-3 (Homo sapiens, UniProt P42574).
T1 construct: purchased Sigma
T1 sequence (P42574 29-175 limits assumed): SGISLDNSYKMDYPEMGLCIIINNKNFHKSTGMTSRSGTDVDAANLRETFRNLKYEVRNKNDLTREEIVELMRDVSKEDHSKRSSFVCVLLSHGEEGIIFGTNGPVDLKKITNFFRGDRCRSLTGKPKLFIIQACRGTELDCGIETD
T1 sequence (P42574 176-277 limits assumed): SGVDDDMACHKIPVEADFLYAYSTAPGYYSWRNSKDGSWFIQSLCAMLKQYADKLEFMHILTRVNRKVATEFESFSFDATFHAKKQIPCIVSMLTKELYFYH
Kind of test: In vitro high throughput caspase-3 assay. Particulars: for Percent Activity: percentage of the positive control, 20-250 μM test compound, lower = better inhibition, negative = better than control caspase inhibitor; for Ki: calculated from IC50 according to Equation 1, read-out: Ki(app); for IC50: fixed substrate concentration of 55 μM, inhibitors 75 to 0.067 μM in duplicate. Type of test: biochemical. On the procedure: Purified Human recombinant caspase-3, fluorescence labeled substrate (Acetyl-Asp-Glu-Val-Asp-7-amino-4-trifluoromethyl coumarin), and known inhibitor (Z-Asp-Glu-Val-Asp-fluoromethyl ketone) can be purchased from Sigma Chemical Co. (St. Louis, Mo.). The enzyme reactions are carried out at room temperature in 10 mM PIPES pH=7.4, 2 mM EDTA, 0.1% CHAPS, 5 mM DTT reaction buffer. Each well on the 96 well plate contains the above reaction buffer plus 55 μM fluorescence labeled substrate, 0.125 μg caspase-3, and 20-250 μM test compound. Positive and negative controls are present on each assay plate. A standard curve is generated using 7-amino-4-trifluoromethyl coumarin in the concentration range from 0.15 μM to 5.0 μM. The reactions are preferably read every 0.5 hours using a fluorescence microtiter plate reader set for 390 nm excitation and 538 nm emission for the first 4 hours after which the plates are left at room temperature overnight. One reading is taken the next morning as a final measurement.
To determine the caspase inhibitory activity of these compounds, the in vitro high throughput caspase-3 assay presented herein was utilized. Purified human recombinant caspase-3, fluorescence labeled substrate (Acetyl-Asp-Glu-Val-Asp-7-amino-4-trifluoromethyl coumarin), and known inhibitor (Z-Asp-Glu-Val-Asp-fluoromethyl ketone) were purchased from Sigma. The enzyme reactions were carried out at room temperature in 10 mM PIPES pH=7.4, 2 mM EDTA, 0.1% CHAPS, 5 mM DTT reaction buffer. Each well on the 96 well plate contained the above reaction buffer plus 55 μM fluorescence labeled substrate, 0.125 μg caspase-3, and 20-250 μM test compound. Positive and negative controls were present on each assay plate. A standard curve was generated using 7-amino-4-trifluoromethyl coumarin in the concentration range from 0.15 μM to 5.0 μM. The reactions were read every 0.5 hours using a fluorescence microtiter plate reader set for 390 nm excitation and 538 nm emission for the first 4 hours after which the plates were left at room temperature overnight. One reading was taken the next morning as a final measurement.
Ki determinations were carried out using the above assay system. […] Ki(app) was calculated according to Equation 1: [formula]
The concentration of inhibitors ranged from 75 to 0.067 μM with each inhibitor concentration assayed in duplicate. The Km for the substrate was determined from a standard Lineweaver-Burke plot.

Test [2] deals with T2, Human Rhinovirus serotype 1A 3C Protease (Human rhinovirus 1A, UniProt P23008).
T2 construct: used to clone the 3C Protease into the expression vector pET16-b; made in house; host or cells: E. coli BL21-DE3-pLys-S
T2 sequence (P23008 1515-1697): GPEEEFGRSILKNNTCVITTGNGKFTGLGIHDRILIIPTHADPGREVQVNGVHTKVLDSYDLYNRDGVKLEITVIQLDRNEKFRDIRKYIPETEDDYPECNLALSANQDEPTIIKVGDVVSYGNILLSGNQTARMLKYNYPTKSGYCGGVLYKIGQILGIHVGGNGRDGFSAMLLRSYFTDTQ
Kind of test: 3C Protease Biochemical Assay (FRET). Particulars: 30° C., 2-6uM substrate, 416 nM 3CP. On the procedure: Human Rhinovirus serotype 1A (ATCC) was used to clone the 3C Protease into the expression vector pET16-b and transformed for production into the E. coli strain BL21-DE3-pLys-S. 3C Protease expression was induced with 1 mM IPTG at 25° C. and purified from the soluble protein extract by chromatography on a SourceQ (Pharmacia) followed by gel filtration. HRV 3CP activity was measured by fluorescence resonance energy transfer using a dimodified decapeptide substrate MOC-[…]DNP-NH2 (7-methoxy coumarin-4-acetic acid fluorochrome and dinitrophenol quencher) with a Km value of 16.8 μM. Inhibition was measured as a change in initial velocity (V0) as a function of inhibitor (I) concentration and substrate (S) concentration. […] Fluorescence was monitored by excitation at 328 nm and emission at 393 nm with 10 nm cutoffs. Data were analyzed with the nonlinear regression analysis program EnzFitter (BioSoft) with the equation:
Ki=(I/((VmaxxS)/V0)/Ks)−I−S
Substrate concentrations used were lower than the Km of the substrate (16.8 uM) so no corrections for an S/Km term were used.

For `O=C1c2ccccc2C(=O)c2c(O)ccc(O)c21` [cpi0130], the “Percent Activity” value in test [1] turned out to be 45.72%.

On to `O=C1C=CC(=O)c2c(O)cccc21` [cpi0136.0002], for which, in test [1], the Ki was 0.0026 µM, the IC50 was 0.02 µM and the “Percent Activity” value is reported as −6.091%.

Take `CC(=O)OCCNc1cc(Br)c2noc3c2c1C(=O)c1ccccc1-3` [cpi0156.0034]: the “Percent Activity” value in test [1] is listed as −0.6303%.

Consider `COc1ccc2noc3c2c1C(=O)c1ccccc1-3` [cpi0156.0054], for which the “Percent Activity” value in test [1] is reported as −3.264%.

In the case of `O=C1C(Cl)=C(Cl)C(=O)c2ccccc21` [cpi0128], in test [1], the Ki was 1.05 µM, the IC50 turned out to be 6.62 µM and the “Percent Activity” value stood at 1.67%.

As for `CN(C)c1cc(Nc2ccccc2)c2c3c(onc13)-c1ccccc1C2=O` [cpi0156.0052], in test [1], the “Percent Activity” value is listed as 31.97%.

In the case of `N#CC1=C(N)NC(SCc2ccccc2)=C(C#N)C12CCCC2` [cpi0157.F10], in test [1], the Ki is 14.5 µM, the IC50 turned out to be 91 µM and the “Percent Activity” value was 19.48%.

For the compound `O=C1C(Cl)=C(N2CCOCC2)C(=O)c2ccccc21` [cpi0156.0044], the “Percent Activity” value in test [1] was −1.376%.

On to `O=C(COc1cc(O)c2c(=O)cc(-c3ccccc3)oc2c1)OCc1ccccc1` [cpi0136.0025], for which, in test [1], the Ki is 40.5 µM, the IC50 was 255 µM and the “Percent Activity” value came out at 54.1256%.

`O=C(O)Cc1cc(O)c2c(c1O)C(=O)c1ccccc1C2=O` [cpi0136.0011]: in test [1], the Ki is 1.13 µM, the IC50 is 7.13 µM and the “Percent Activity” value amounted to 2.42%.

With `O=C(NN=Cc1ccccc1)C12CC3CC(C1)CC(C(=O)NN=Cc1ccccc1)(C3)C2` [cpi0157.B2], in test [1], the Ki was 52.8 µM and the “Percent Activity” value worked out at 50.76%.

Take `Nc1ccc(O)c2c1C(=O)c1ccccc1C2=O` [cpi0136.0007]: in test [1], the Ki was 1.77 µM, the IC50 worked out at 11.2 µM and the “Percent Activity” value is listed as −0.8437%.

As for `CNc1cc(Nc2ccccc2)c2c3c(onc13)-c1ccccc1C2=O` [cpi0156.0051], in test [1], the “Percent Activity” value is listed as 6.782%.

With `O=C1c2ccccc2C(=O)c2c1cc(S(=O)(=O)O)c(O)c2O` [cpi0136.0005], in test [1], the Ki is 1.41 µM, the IC50 was found to be 8.9 µM and the “Percent Activity” value was −2.336%.

In the case of `CC(C)=CCC(O)C1CC(=O)c2c(O)ccc(O)c2C1=O` (mixture of isomers) [cpi0138.0002], the “Percent Activity” value in test [1] worked out at 30.37%.

As to `O=C1C=CC(=NNc2ccc([N+](=O)[O-])cc2[N+](=O)[O-])c2cccc(O)c21` [cpi0136.0020], in test [1], the Ki is 54.2 µM, the IC50 worked out at 342 µM and the “Percent Activity” value is 36.98%.

On to `O=C1c2ccccc2C(=O)c2c(O)c(O)cc(O)c21` [cpi0136.0006], for which, in test [1], the Ki was 0.762 µM, the IC50 came out at 4.8 µM and the “Percent Activity” value is recorded as −2.295%.

As for `CC(=O)N(Cc1ccccc1)C1=C(Cl)C(=O)c2ccccc2C1=O` [cpi0156.0046], the “Percent Activity” value in test [1] is given as −1.772%.

Take `O=C1C(Br)=C(Br)C(=O)c2c1ccc(Br)c2O` [cpi0139]: the Ki in test [2] came out at 154 µM. Besides, in test [1], the Ki was 69.8 µM and the IC50 worked out at 440 µM.

As to `O=C1c2ccccc2-c2onc3c(N4CCCCC4)cc(Nc4ccccc4)c1c23` [cpi0156.0048], in test [1], the “Percent Activity” value was 18.82%.

For `COc1cc(NC2OC(CO)C(O)C(O)C2O)ccc1C` (stereo not shown) [cpi0159.C3], the “Percent Activity” value in test [1] came out at 33.47%.

Regarding `O=C(O)C1Cc2c([nH]c3ccccc23)C(c2ccncc2)N1` (stereo not shown) [cpi0190], in test [1], the Ki is 0.0054 µM and the 50% inhibitory concentration (IC50) turned out to be 0.03 µM.

In test [2], `O=C1C(Br)=CC(=O)c2c(O)cccc21` [cpi0141] came in with a Ki of 73 µM. In test [1], the Ki was 4.91 µM and the IC50 is 30.9 µM.

For `COc1c(C)c([N+](=O)[O-])c(O)c2c1C(=O)c1ccccc1C2=O` [cpi0136.0024], in test [1], the Ki is 3.05 µM, the IC50 stood at 19.2 µM and the “Percent Activity” value is reported as 51.3817%.

As for `N#CC1=C(N)SC(N)=C(C#N)C1c1cccc(F)c1` [cpi0157.F9], in test [1], the Ki is 39.9 µM, the half-maximal inhibitory concentration (IC50) was 251 µM and the “Percent Activity” value stood at 31.50%.

In test [2], `O=C1C=CC(=O)c2ccccc21` [cpi0126] returned a Ki of 515 µM. Further, in test [1], the Ki is 0.642 µM, the IC50 is 4.04 µM and the “Percent Activity” value is listed as −0.30%.

Consider `O=C(O)c1c(O)c2c(c(O)c1Cl)C(=O)c1ccccc1C2=O` [cpi0136.0001], for which, in test [1], the Ki is 0.807 µM, the IC50 amounted to 5.09 µM and the “Percent Activity” value is on record as −8.938%.

Consider `NC(=O)NN=C1C=CC(=O)c2c(O)cccc21` [cpi0136.0004], for which, in test [1], the Ki is 0.0682 µM, the IC50 was found to be 0.43 µM and the “Percent Activity” value is listed as −3.391%.

On to `Cc1cccc(Oc2ccc3noc4c3c2C(=O)c2ccccc2-4)c1` [cpi0156.0055], for which the “Percent Activity” value in test [1] is −1.448%.

As for `CC1=CC(=O)c2ccccc2C1=O` [cpi0127], the Ki in test [2] worked out at 242 µM. In test [1], the Ki is 0.694 µM, the IC50 was determined as 4.37 µM and the “Percent Activity” value worked out at 1.32%.

As for `O=C(NC1CCCCC1)c1ccc2c3c(onc13)-c1ccccc1C2=O` [cpi0156.0045], the “Percent Activity” value in test [1] was determined as 3.338%.

As to `O=C1c2ccccc2-c2onc3c(N4CCN(c5ccccc5)CC4)ccc1c23` [cpi0156.0047], in test [1], the “Percent Activity” value was determined as 28.63%.

As to `O=C1C(Br)=C(Br)C(=O)c2c(O)c(Br)c(Br)c(O)c21` [cpi0140], in test [1], the Ki is 0.503 µM and the IC50 is 3.17 µM.

As to `Cc1cc(C(=O)NN)c2cc(Br)ccc2n1` [cpi0157.C3], in test [1], the Ki is 131 µM, the IC50 was 825 µM and the “Percent Activity” value was determined as 36.41%.

`CC(C)=CCC(O)C1CC(=O)c2c(O)ccc(O)c2C1=O` (mixture of isomers) [cpi0138.0001]: the “Percent Activity” value in test [1] was found to be 22.68%.

Turning to `O=C1c2ccccc2-c2onc3ccc(Cl)c1c23` [cpi0156.0056], the “Percent Activity” value in test [1] amounted to 1.882%.

For the compound `O=C1C(c2ccc(O)c(O)c2)=C(O)C(=O)c2c(O)cc(O)cc21` [cpi0136.0010], in test [1], the Ki was 9.76 µM, the IC50 was 61.5 µM and the “Percent Activity” value is reported as 1.452%.

Consider `Cc1ccc2[nH]c3c(cc(O)c4c(=O)c5ccccc5c(=O)c43)oc2c1` [cpi0136.0017], for which, in test [1], the Ki is 16.7 µM, the IC50 stood at 106 µM and the “Percent Activity” value is listed as 24.8%.

For the compound `COc1ccc2c(c1OC)C(=O)OC2CC(=O)c1ccc(O)cc1O` (stereo not shown) [cpi0156.D1], the “Percent Activity” value in test [1] turned out to be 24.72%.

With `O=C1C=CC(=NNc2cc([N+](=O)[O-])cc([N+](=O)[O-])c2)c2cccc(O)c21` [cpi0136.0008], in test [1], the Ki was 0.557 µM, the IC50 is 3.51 µM and the “Percent Activity” value is −0.715%.

Consider `O=C1c2ccccc2-c2onc3ccc(Oc4c(F)c(F)c(F)c(F)c4F)c1c23` [cpi0156.0042], for which the “Percent Activity” value in test [1] was 11.08%.
